Here are results for one compound from patent publication US6069146A, “Halimide, a cytotoxic marine natural product, and derivatives thereof” (The Regents of the University of California, priority 1998, dated 2000).

The test system of test [1] is paclitaxel-resistant A2780 cell line with altered tubulin. Put plainly: Collateral sensitivity, paclitaxel-resistant A2780. The class given is cell-based, human.
The subject of test [2] is dividing cells (mitotic spindle). Nature of the test: Mitotic spindle / cell division in dividing cells. In kind it is cell-based. The note with it: exposure of dividing cells. An excerpt: (§1) Since cancer cells generally divide more rapidly than their normal cell counterpart, cancer cells generally are more susceptible than the normal cells to mitotic inhibitors such as halimide.

Another test deals with Bcl-2. Nature of the test: Bcl-2 phosphorylation. The class given is cell-based.
In test [3] the test system is human ovarian carcinoma cell line A2780. Nature of the test: MTS cytotoxicity assay, A2780. In kind it is cell-based. As to conditions: read-out: IC50, inhibition of cell proliferation. As to the method:
(§2) The cytotoxicity of halimide was assessed in vitro against the human colon carcinoma cell line HCT116 and the human ovarian carcinoma cell line A2780 by MTS assay (Ribs et al., Mol. Biol. Cell 3:184a (1992), which is incorporated herein by reference). Cells were plated at 4,000 cells/well in 96 well microliter plates and, after 24 hours, halimide (dissolved in DMSO) was added and serially diluted. The cells were incubated with the compound at 37° C. for 72 hours, then the tetrazolium dye MTS was added to a final concentration of 333 μg/ml and the electron coupling agent phenazine methosulfate was added to a final concentration of 25 μM. A dehydrogenase enzyme in live cells reduces the MTS to a form that absorbs light at […], which can be quantitated spectrophotometrically.
(§3) Assay results are expressed as an IC50, which is the drug concentration required to inhibit cell proliferation by 50% compared to growth of untreated control cells.

Another test relates to tubulin. Nature of the test: Binding to tubulin. As to conditions: each molecule of halimide to one tubulin molecule.
Excerpt: as §1

Test [4] has as its system P388 mouse leukemia cells. Put plainly: In vivo P388 murine leukemia model, survival. As to the method: The efficacy of halimide was determined in vivo in a mouse P388 model. 1×10^6 P388 mouse leukemia cells were implanted in the intraperitoneal cavity of BALB/cX DBA/2 F1 (CDF1) or C57/BL6XDBA/2 F1 (BDF1) mice (Rose et al., Cancer Res. 43:1504-1510 (1983), which is incorporated herein by reference). Halimide was dissolved in ethanol and diluted with water to a concentration of 2.7 mg/ml. Halimide was injected intraperitoneally or intravenously beginning on the first day after tumor implantation and every day thereafter for five treatments. Increases in life span were reflected by the median survival time of treated (T) versus control (C) groups; T/C was calculated. For the P388 tumor model, a T/C […] 125% is considered to be a significant increase in survival. An optimal dose of 27 mg/kg/injection, ip, produced a T/C of 153%.

Test [5] deals with human colon carcinoma cell line HCT116. Put plainly: MTS cytotoxicity assay, HCT116. In kind it is cell-based. As to conditions: HCT-116, HCT116, 72 hours, read-out: IC50, inhibition of cell proliferation. As for the experimental part: as §2, §3
A general note: Tetrazolium assays rely on reduction of a dye to a coloured formazan, in cell work by metabolically active cells.

The subject of a further test is carcinoma cells. Nature of the test: Cell cycle arrest of carcinoma cells. The class given is cell-based. The note with it: 5 μM halimide. From the text: As used herein, the term "premitotic stage," when used in reference to cells, means that the cells have not attained the anaphase stage of mitosis and, therefore, have not yet begun to divide. […] Thus, the invention provides a method of reducing or inhibiting the ability of the cells to proceed through mitosis and, therefore, proliferate, by contacting the cells with a compound of the invention.

Test [6] has as its system multi-drug resistant human colon carcinoma cells. Nature of the test: Cross-resistance, multi-drug resistant colon carcinoma cells. The class given is cell-based.
Test [7] has as its system 2X cycled bovine brain tubulin. Nature of the test: Inhibition of tubulin polymerization (2X cycled bovine brain tubulin, GTP). In kind it is biochemical. From the text: Thus, the compounds of the invention have an activity similar to vinca alkaloids, but are chemically distinct from the vinca alkaloids.

Where two headings read alike, the source gives them in different places.

For `C=CC(C)(C)c1nc[nH]c1/C=C1\NC(=O)C(Cc2ccccc2)NC1=O` (stereo not shown) [halimide], the “collateral sensitivity (in words)” value in test [1] is on record as “collaterally sensitive”. Besides, in [2], the “block of the cell in a premitotic stage (in words)” value is recorded as “blocked the cell in a premitotic stage within a few minutes; the cells did not divide”. In addition, the “effect on mitotic spindle (in words)” value in test [2] is listed as “disappearance of the mitotic spindle”. Also, in the test with Bcl-2, the “Bcl-2 hyperphosphorylation (in words)” value is “can hyperphosphorylate Bcl-2”. Moreover, the IC50 was found to be 820 nM in test [3] (A2780, 72 hours); 800 nM in [3] (Homo sapiens, A2780, 72 h); 1000 nM in [5]. Besides, in the test with tubulin, the “binding to tubulin (in words)” value is “bound tightly to one tubulin molecule”. Besides, the “survival of leukemia bearing mice (in words)” value in test [4] (P388 model) is “significantly prolongs the survival of leukemia bearing mice”. Moreover, the “increase in life span” value in test [4] (intraperitoneal injected P388 murine leukemia model) is on record as 53%. In test [4] (ip, P388 model), this compound returned an optimal dose of 27 mg/kg/injection. Besides, in test [4] (optimal dose 27 mg/kg/injection, ip, daily for five treatments from first day after implantation), the “T/C (median survival time of treated versus control)” value is given as 153%. In the test on carcinoma cells, the “cell cycle arrest (in words)” value is “arrested the cells at or near the G2/M boundary of the cell cycle”. In addition, the “resistance of multi-drug resistant cells (in words)” value in [6] is “not resistant”. In test [7], the “inhibition of tubulin polymerization (in words)” value is on record as “inhibited tubulin polymerization”. In addition, in [7] (20 μM halimide, in the presence of GTP), the “inhibition of tubulin polymerization” value is reported as 55%.
